# Measurements published in patent US9593149B2, “Amylin and calcitonin receptor agonist” (Novo Nordisk A/S, priority 2014, dated 2017).
# Numbered stars: 1 amine (or outer) side, 2 acyl side, 3 side chain; on linkers, the order of the positions; unused ones are H or OH. Peptide text beside a SMILES is read from it. * marks the point of attachment. C20 diacid = O=C(O)CCCCCCCCCCCCCCCCCCC(=O)*; C18 diacid = O=C(O)CCCCCCCCCCCCCCCCC(=O)*; γGlu = O=C(O)[C@H](CCC(=O)[*:2])N[*:1]
# Assay: Assay (IV) determination of solubility
# Format: physicochemical
# Protocol: Assay (IV)—Determination of Solubility
# The mimylin peptide was dissolved in water at ˜500 nmol/ml and mixed 1:1 with a series of buffers (100 mM glycylglycine pH 3.0, 100 mM glycylglycine pH 4.0, 100 mM glycylglycine pH 5.0, 100 mM bistrispropane pH 6.0, 100 mM bistrispropane pH 6.5, 100 mM bistrispropane pH 7.0, 100 mM bistrispropane pH 7.5, 100 mM bistrispropane pH 8.0).
SMILES,Solubility (pH 3.0),Solubility (pH 4.0),solubility at 18 h (pH 5.0),Solubility (pH 6.0),Solubility (pH 6.5),Solubility (pH 7.0),Solubility (pH 7.5),Solubility (pH 8.0),Solubility (pH 5.0),solubility at 18 h (pH 6.0)
"CC(C)C[C@H](NC(=O)CNC(=O)[C@H](CO)NC(=O)[C@H](C)NC(=O)[C@H](CCC(=O)O)NC(=O)CC[C@H](NC(=O)CCCCCCCCCCCCCCCCCCC(=O)O)C(=O)O)C(=O)N[C@@H](CO)C(=O)N[C@H](C(=O)N[C@@H](C)C(=O)N[C@@H](C)C(=O)N[C@@H](CC(C)C)C(=O)NCC(=O)N[C@@H](CCCNC(=N)N)C(=O)N[C@@H](CC(C)C)C(=O)N[C@@H](CO)C(=O)N[C@@H](CCC(N)=O)C(=O)N[C@@H](CCC(=O)O)C(=O)N[C@@H](CC(C)C)C(=O)N[C@@H](Cc1cnc[nH]1)C(=O)N[C@@H](CCC(=O)O)C(=O)N[C@@H](CC(C)C)C(=O)N[C@@H](CCC(N)=O)C(=O)N[C@H](C(=O)N[C@@H](Cc1ccc(O)cc1)C(=O)N1CCC[C@H]1C(=O)N[C@@H](CCCNC(=N)N)C(=O)N[C@H](C(=O)N[C@@H](CCC(=O)O)C(=O)N[C@H](C(=O)NCC(=O)N[C@@H](CO)C(=O)NCC(=O)N[C@H](C(=O)N[C@@H](Cc1ccc(O)cc1)C(N)=O)[C@@H](C)O)[C@@H](C)O)[C@@H](C)O)[C@@H](C)O)[C@@H](C)O [compound 103, [N-terminal(C20 diacid-gGlu), 4G, 15Q, 21Q, 23Y, 30S, 31G, 32T, 33Y]mimylin] ({C20 diacid-γGlu}-EASGLSTAALGRLSQELHELQTYPRTETGSGTY-NH2)",≧200 μM,≧200 μM,156 µM,≧200 μM,≧200 μM,≧200 μM,≧200 μM,≧200 μM,,
"CC(C)C[C@H](NC(=O)[C@H](CCC(=O)O)NC(=O)[C@H](Cc1cnc[nH]1)NC(=O)[C@H](CC(C)C)NC(=O)[C@H](CCC(=O)O)NC(=O)[C@H](C)NC(=O)[C@H](CO)NC(=O)[C@H](CC(C)C)NC(=O)[C@H](CCCNC(=N)N)NC(=O)CNC(=O)[C@H](CC(C)C)NC(=O)[C@@H](NC(=O)[C@H](C)NC(=O)[C@@H](NC(=O)[C@H](CO)NC(=O)[C@H](CC(C)C)NC(=O)[C@H](CCC(=O)O)NC(=O)[C@H](CO)NC(=O)[C@H](C)NC(=O)CC[C@H](NC(=O)CCCCCCCCCCCCCCCCC(=O)O)C(=O)O)[C@@H](C)O)C(C)C)C(=O)N[C@@H](C)C(=O)N[C@H](C(=O)N[C@@H](CC(C)C)C(=O)N1CCC[C@H]1C(=O)N[C@@H](CCCNC(=N)N)C(=O)N[C@H](C(=O)N[C@@H](CCC(=O)O)C(=O)N[C@H](C(=O)NCC(=O)N[C@@H](CO)C(=O)NCC(=O)N[C@@H](CO)C(=O)N1CCC[C@H]1C(N)=O)[C@@H](C)O)[C@@H](C)O)[C@@H](C)O [compound 76, [N-terminal(C18 diacid-gGlu), des1, 9V, 30S, 31G]mimylin] ({C18 diacid-γGlu}-ASELSTAVLGRLSAELHELATLPRTETGSGSP-NH2)",≧200 μM,≧200 μM,,≧200 μM,≧200 μM,≧200 μM,≧200 μM,≧200 μM,≧200 μM,
"CC(C)C[C@H](NC(=O)[C@H](CCC(=O)O)NC(=O)[C@H](Cc1cnc[nH]1)NC(=O)[C@H](CC(C)C)NC(=O)[C@H](CCC(=O)O)NC(=O)[C@H](C)NC(=O)[C@H](CO)NC(=O)[C@H](CC(C)C)NC(=O)[C@H](CCCNC(=N)N)NC(=O)CNC(=O)[C@H](CC(C)C)NC(=O)[C@@H](NC(=O)[C@H](C)NC(=O)[C@@H](NC(=O)[C@H](CO)NC(=O)[C@@H](NC(=O)[C@H](CCC(=O)O)NC(=O)[C@H](CO)NC(=O)[C@H](C)NC(=O)CC[C@H](NC(=O)CCCCCCCCCCCCCCCCC(=O)O)C(=O)O)C(C)C)[C@@H](C)O)C(C)C)C(=O)N[C@@H](C)C(=O)N[C@H](C(=O)N[C@@H](CC(C)C)C(=O)N1CCC[C@H]1C(=O)N[C@@H](CCCNC(=N)N)C(=O)N[C@H](C(=O)N[C@@H](CCC(=O)O)C(=O)N[C@H](C(=O)NCC(=O)N[C@@H](CO)C(=O)NCC(=O)N[C@@H](CO)C(=O)N1CCC[C@H]1C(N)=O)[C@@H](C)O)[C@@H](C)O)[C@@H](C)O [compound 86, [N-terminal(C18 diacid-gGlu), des1, 5V, 9V, 30S, 31G]mimylin] ({C18 diacid-γGlu}-ASEVSTAVLGRLSAELHELATLPRTETGSGSP-NH2)",≧200 μM,≧200 μM,,,≧200 μM,≧200 μM,≧200 μM,≧200 μM,≧200 μM,38 µM
"CC(C)C[C@H](NC(=O)CNC(=O)[C@H](CO)NC(=O)[C@H](C)NC(=O)CC[C@H](NC(=O)CCCCCCCCCCCCCCCCCCC(=O)O)C(=O)O)C(=O)N[C@@H](CO)C(=O)N[C@H](C(=O)N[C@@H](C)C(=O)N[C@H](C(=O)N[C@@H](CC(C)C)C(=O)NCC(=O)N[C@@H](CCCNC(=N)N)C(=O)N[C@@H](CC(C)C)C(=O)N[C@@H](CO)C(=O)N[C@@H](C)C(=O)N[C@@H](CCC(=O)O)C(=O)N[C@@H](CC(C)C)C(=O)N[C@@H](Cc1cnc[nH]1)C(=O)N[C@@H](CCC(=O)O)C(=O)N[C@@H](CC(C)C)C(=O)N[C@@H](C)C(=O)N[C@H](C(=O)N[C@@H](Cc1ccc(O)cc1)C(=O)N1CCC[C@H]1C(=O)N[C@@H](CCCNC(=N)N)C(=O)N[C@H](C(=O)N[C@@H](CCC(=O)O)C(=O)N[C@H](C(=O)NCC(=O)N[C@@H](CO)C(=O)NCC(=O)N[C@H](C(=O)N1CCC[C@H]1C(N)=O)[C@@H](C)O)[C@@H](C)O)[C@@H](C)O)[C@@H](C)O)C(C)C)[C@@H](C)O [compound 98, [N-terminal(C20 diacid-gGlu), des1, 4G, 9V, 23Y, 30S, 31G, 32T]mimylin] ({C20 diacid-γGlu}-ASGLSTAVLGRLSAELHELATYPRTETGSGTP-NH2)",≧200 μM,≧200 μM,,≧200 μM,≧200 μM,≧200 μM,≧200 μM,≧200 μM,≧200 μM,
"CC(C)C[C@H](NC(=O)[C@H](C)NC(=O)[C@H](CC(C)C)NC(=O)[C@@H](NC(=O)[C@H](CO)NC(=O)[C@H](CC(C)C)NC(=O)[C@H](CCC(=O)O)NC(=O)[C@H](CO)NC(=O)[C@H](C)NC(=O)[C@H](CCC(=O)O)NC(=O)CCCCCCCCCCCCCCCCC(=O)O)[C@@H](C)O)C(=O)NCC(=O)N[C@@H](CCCNC(=N)N)C(=O)N[C@@H](CC(C)C)C(=O)N[C@@H](CO)C(=O)N[C@@H](C)C(=O)N[C@@H](CCC(=O)O)C(=O)N[C@@H](CC(C)C)C(=O)N[C@@H](Cc1cnc[nH]1)C(=O)N[C@@H](CCC(=O)O)C(=O)N[C@@H](CC(C)C)C(=O)N[C@@H](C)C(=O)N[C@H](C(=O)N[C@@H](CC(C)C)C(=O)N1CCC[C@H]1C(=O)N[C@@H](CCCNC(=N)N)C(=O)N[C@H](C(=O)N[C@@H](CCC(=O)O)C(=O)N[C@H](C(=O)NCC(=O)N1CCC[C@H]1C(=O)N[C@@H](CCC(=O)O)C(=O)N[C@@H](CO)C(=O)N1CCC[C@H]1C(N)=O)[C@@H](C)O)[C@@H](C)O)[C@@H](C)O [compound 15, [N-terminal(C18 diacid), 8L]mimylin] ({C18 diacid}-EASELSTLALGRLSAELHELATLPRTETGPESP-NH2)",≧200 μM,≧200 μM,,≧200 μM,≧200 μM,≧200 μM,≧200 μM,≧200 μM,≧200 μM,
